≈ marks a conversion by molar mass, not a printed value. Marks after values point to notes of the source that are not given here. Non-standard residues stand in square brackets, D forms with d. Residues, ends and D or L forms follow the SMILES beside them. d2Nal = N[C@H](Cc1ccc2ccccc2c1)C(=O)O
Experiments:
[1] = test system: Methicillin-resistant Staphylococcus aureus (MRSA); type: cell-based; conditions: Methicillin-resistant
In short: (§1)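 Read-out is the minimum inhibitory concentration, obtained by twofold serial dilution in microdilution format per CLSI guidance, with five parallel runs.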

[2] = test system: carbapenem-resistant Pseudomonas aeruginosa (CRPA); type: cell-based; conditions: carbapenem-resistant (CRPA)
In short: as §1

[3] = test system: vancomycin-resistant Enterococcus (VRE); type: cell-based
In short: as §1

[4] = test system: carbapenem-resistant Escherichia coli (CREC); type: cell-based; conditions: carbapenem-resistant (CREC)
In short: as §1

[5] = test system: carbapenem-resistant Klebsiella pneumoniae (CRKP); type: cell-based; conditions: carbapenem-resistant (CRKP)
In short: as §1

[6] = test system: Staphylococcus aureus (NRS 384); conditions: NRS 384, 3 h
Experimental: Trypsin (250 U/mg, pH=8.0) and AMPs (LV-1 to LV-30) were mixed in a ratio of 1:10 (w/w) and added to a reaction buffer (0.2 M sodium phosphate, 1 mM CaCl2), pH 7.5), and then incubated at 37° C. for 3 h.

[7] = test system: Serratia marcescens ATCC 29021; type: cell-based
In short: (§2)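 Minimum inhibitory concentration served as the read-out, obtained with a twofold serial dilution microdilution method run per CLSI guidelines and performed in five parallel replicates.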

[8] = test system: Corynebacterium ATCC 7715; type: cell-based
In short: as §2

[9] = test system: Trichophyton ATCC MYA-4438; type: cell-based
In short: as §2

[10] = test system: Candida krusei ATCC 6258; type: cell-based
In short: as §2

[11] = test system: Candida glabrata ATCC 15126; type: cell-based
In short: as §2

[12] = test system: Candida tropicalis ATCC 750; type: cell-based
In short: as §2

[13] = test system: Staphylococcus aureus ATCC 25923; type: cell-based
In short: as §2

[14] = test system: Candida utilis ATCC 9950; type: cell-based
In short: as §2

[15] = test system: Salmonella typhimurium ATCC 14028; type: cell-based
In short: as §2

[16] = test system: Pseudomonas aeruginosa ATCC 27853; type: cell-based
In short: as §2

[17] = test system: Escherichia coli ATCC 25922; type: cell-based
In short: as §2

[18] = test system: Enterococcus ATCC 29212; type: cell-based
In short: as §2

[19] = test system: Klebsiella pneumoniae ATCC 700603; type: cell-based
In short: as §2

[20] = test system: Bacillus subtilis ATCC 6633; type: cell-based
In short: as §2

[21] = test system: Candida albicans ATCC MYA-2876; type: cell-based
In short: as §2

[22] = test system: Pseudomonas aeruginosa ATCC 27853; assay: Injectable formulations on mice infected with peritonitis; type: in vivo, ICR mice; conditions: twice a day for 3 days; for Number of mice that died on each day after infection: day 1 / Number of mice that died on each day after infection: day 2 / Number of mice that died on each day after infection: day 3 / Number of mice that died on each day after infection: day 4 / Number of mice that died on each day after infection: day 5 / Average survival times (Days): n = 10; for Average survival times (Days): observed for 14 d; for survival time of mice infected with Pseudomonas aeruginosa: tail vein, observed 14 d
In short: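 Survival readout: deaths and survival time tracked for 14 d. Treatment was tail-vein injection by body weight, twice a day for 3 consecutive days, starting right after intraperitoneal challenge with 0.2 mL of 1×10^9 CFU/mL P. aeruginosa ATCC 27853 in male and female ICR mice.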

[23] = Serum stability assay (residual level by RP-HPLC); conditions: human

SMILES: CC(=O)N[C@H](CCCCN)C(=O)N[C@H](CCCCN)C(=O)N[C@H](CC(C)C)C(=O)N[C@H](CC(C)C)C(=O)N[C@H](Cc1ccc2ccccc2c1)C(=O)N[C@H](CCCNC(=N)N)C(=O)N[C@H](CC(C)C)C(=O)N[C@H](CCCCN)C(=O)N[C@H](Cc1ccc2ccccc2c1)C(=O)N[C@H](CCCNC(=N)N)C(=O)N[C@H](CCCCN)C(N)=O [LV-19] (Ac-[dK][dK][dL][dL][d2Nal][dR][dL][dK][d2Nal][dR][dK]-NH2)
- MIC MRSA [1]: 4 µg/mL (≈ 2.47 µM)
- MIC CRPA [2]: 2 µg/mL (≈ 1.24 µM)
- MIC VRE [3]: 4 µg/mL (≈ 2.47 µM)
- MIC CREC [4]: 8 µg/mL (≈ 4.94 µM)
- MIC CRKP [5]: 4 µg/mL (≈ 2.47 µM)
- Trypsin MIC [6]: 1 µg/mL
- MIC Serratia marcescens ATCC 29021 [7]: 8 µg/mL (≈ 4.94 µM)
- MIC Corynebacterium ATCC 7715 [8]: 2 µg/mL (≈ 1.24 µM)
- MIC Trichophyton ATCC MYA-4438 [9]: 8 µg/mL (≈ 4.94 µM)
- MIC Candida krusei ATCC 6258 [10]: 16 µg/mL (≈ 9.89 µM)
- MIC Candida glabrata ATCC 15126 [11]: 8 µg/mL (≈ 4.94 µM)
- MIC Candida tropicalis ATCC 750 [12]: 4 µg/mL (≈ 2.47 µM)
- MIC Staphylococcus aureus ATCC 25923 [13]: 1 µg/mL (≈ 0.618 µM)
- MIC Candida utilis ATCC 9950 [14]: 8 µg/mL (≈ 4.94 µM)
- MIC Salmonella typhimurium ATCC 14028 [15]: 2 µg/mL (≈ 1.24 µM)
- MIC Pseudomonas aeruginosa ATCC 27853 [16]: 1 µg/mL (≈ 0.618 µM)
- MIC Escherichia coli ATCC 25922 [17]: 1 µg/mL (≈ 0.618 µM)
- MIC Enterococcus ATCC 29212 [18]: 2 µg/mL (≈ 1.24 µM)
- MIC Klebsiella pneumoniae ATCC 700603 [19]: 2 µg/mL (≈ 1.24 µM)
- MIC Bacillus subtilis ATCC 6633 [20]: 8 µg/mL (≈ 4.94 µM)
- MIC Candida albicans ATCC MYA-2876 [21]: 8 µg/mL (≈ 4.94 µM)
- Number of mice that died on each day after infection: day 1 ([22]; 0.2 mg/kg via tail vein): 3 Mouse
- Number of mice that died on each day after infection: day 2 ([22]; 0.2 mg/kg via tail vein): 2 Mouse
- Number of mice that died on each day after infection: day 3 ([22]; 0.2 mg/kg via tail vein): 0 Mouse
- Number of mice that died on each day after infection: day 4 ([22]; 0.2 mg/kg via tail vein): 0 Mouse
- Number of mice that died on each day after infection: day 5 ([22]; 0.2 mg/kg via tail vein): 0 Mouse
- Average survival times (Days) ([22]; 0.2 mg/kg via tail vein): 7.7** Days
- Number of mice that died on each day after infection: day 1 ([22]; 1 mg/kg via tail vein): 0 Mouse
- Number of mice that died on each day after infection: day 2 ([22]; 1 mg/kg via tail vein): 0 Mouse
- Number of mice that died on each day after infection: day 3 ([22]; 1 mg/kg via tail vein): 1 Mouse
- Number of mice that died on each day after infection: day 4 ([22]; 1 mg/kg via tail vein): 0 Mouse
- Number of mice that died on each day after infection: day 5 ([22]; 1 mg/kg via tail vein): 2 Mouse
- Average survival times (Days) ([22]; 1 mg/kg via tail vein): 11.1**** Days
- Number of mice that died on each day after infection: day 1 ([22]; 5 mg/kg via tail vein): 1 Mouse
- Number of mice that died on each day after infection: day 2 ([22]; 5 mg/kg via tail vein): 0 Mouse
- Number of mice that died on each day after infection: day 3 ([22]; 5 mg/kg via tail vein): 2 Mouse
- Number of mice that died on each day after infection: day 4 ([22]; 5 mg/kg via tail vein): 0 Mouse
- Number of mice that died on each day after infection: day 5 ([22]; 5 mg/kg via tail vein): 0 Mouse
- Average survival times (Days) ([22]; 5 mg/kg via tail vein): 10.5**** Days
- survival time of mice infected with Pseudomonas aeruginosa [22]: superior to those of the Levofloxacin group
- remaining at 12 h, 0.91 mg/mL [23]: 98.1%

SMILES: CC(=O)N[C@H](CCCNC(=N)N)C(=O)N[C@H](CCCCN)C(=O)N[C@H](CC(C)C)C(=O)N[C@H](CC(C)C)C(=O)N[C@H](Cc1ccc2ccccc2c1)C(=O)N[C@H](CCCNC(=N)N)C(=O)N[C@H](CC(C)C)C(=O)N[C@H](CCCCN)C(=O)N[C@H](Cc1ccc2ccccc2c1)C(=O)N[C@H](CCCNC(=N)N)C(=O)N[C@H](CCCCN)C(N)=O [LV-20] (Ac-[dR][dK][dL][dL][d2Nal][dR][dL][dK][d2Nal][dR][dK]-NH2)
- MIC MRSA [1]: 2 µg/mL (≈ 1.21 µM)
- MIC CRPA [2]: 4 µg/mL (≈ 2.43 µM)
- MIC VRE [3]: 4 µg/mL (≈ 2.43 µM)
- MIC CREC [4]: 8 µg/mL (≈ 4.86 µM)
- MIC CRKP [5]: 8 µg/mL (≈ 4.86 µM)
- Trypsin MIC [6]: 1 µg/mL
- MIC Serratia marcescens ATCC 29021 [7]: 2 µg/mL (≈ 1.21 µM)
- MIC Corynebacterium ATCC 7715 [8]: 2 µg/mL (≈ 1.21 µM)
- MIC Trichophyton ATCC MYA-4438 [9]: 8 µg/mL (≈ 4.86 µM)
- MIC Candida krusei ATCC 6258 [10]: 8 µg/mL (≈ 4.86 µM)
- MIC Candida glabrata ATCC 15126 [11]: 8 µg/mL (≈ 4.86 µM)
- MIC Candida tropicalis ATCC 750 [12]: 8 µg/mL (≈ 4.86 µM)
- MIC Staphylococcus aureus ATCC 25923 [13]: 1 µg/mL (≈ 0.607 µM)
- MIC Candida utilis ATCC 9950 [14]: 8 µg/mL (≈ 4.86 µM)
- MIC Salmonella typhimurium ATCC 14028 [15]: 1 µg/mL (≈ 0.607 µM)
- MIC Pseudomonas aeruginosa ATCC 27853 [16]: 1 µg/mL (≈ 0.607 µM)
- MIC Escherichia coli ATCC 25922 [17]: 1 µg/mL (≈ 0.607 µM)
- MIC Enterococcus ATCC 29212 [18]: 4 µg/mL (≈ 2.43 µM)
- MIC Klebsiella pneumoniae ATCC 700603 [19]: 2 µg/mL (≈ 1.21 µM)
- MIC Bacillus subtilis ATCC 6633 [20]: 2 µg/mL (≈ 1.21 µM)
- MIC Candida albicans ATCC MYA-2876 [21]: 4 µg/mL (≈ 2.43 µM)
- Number of mice that died on each day after infection: day 1 ([22]; 0.2 mg/kg via tail vein): 2 Mouse
- Number of mice that died on each day after infection: day 2 ([22]; 0.2 mg/kg via tail vein): 1 Mouse
- Number of mice that died on each day after infection: day 3 ([22]; 0.2 mg/kg via tail vein): 2 Mouse
- Number of mice that died on each day after infection: day 4 ([22]; 0.2 mg/kg via tail vein): 1 Mouse
- Number of mice that died on each day after infection: day 5 ([22]; 0.2 mg/kg via tail vein): 0 Mouse
- Average survival times (Days) ([22]; 0.2 mg/kg via tail vein): 7.0** Days
- Number of mice that died on each day after infection: day 1 ([22]; 1 mg/kg via tail vein): 1 Mouse
- Number of mice that died on each day after infection: day 2 ([22]; 1 mg/kg via tail vein): 1 Mouse
- Number of mice that died on each day after infection: day 3 ([22]; 1 mg/kg via tail vein): 1 Mouse
- Number of mice that died on each day after infection: day 4 ([22]; 1 mg/kg via tail vein): 0 Mouse
- Number of mice that died on each day after infection: day 5 ([22]; 1 mg/kg via tail vein): 0 Mouse
- Average survival times (Days) ([22]; 1 mg/kg via tail vein): 10.4**** Days
- Number of mice that died on each day after infection: day 1 ([22]; 5 mg/kg via tail vein): 1 Mouse
- Number of mice that died on each day after infection: day 2 ([22]; 5 mg/kg via tail vein): 2 Mouse
- Number of mice that died on each day after infection: day 3 ([22]; 5 mg/kg via tail vein): 0 Mouse
- Number of mice that died on each day after infection: day 4 ([22]; 5 mg/kg via tail vein): 0 Mouse
- Number of mice that died on each day after infection: day 5 ([22]; 5 mg/kg via tail vein): 0 Mouse
- Average survival times (Days) ([22]; 5 mg/kg via tail vein): 10.3**** Days
- survival time of mice infected with Pseudomonas aeruginosa [22]: superior to those of the Levofloxacin group
- remaining at 12 h, 0.91 mg/mL [23]: 98.2%

Source: patent publication US20250304620A1, “ANTIMICROBIAL PEPTIDE AND APPLICATION THEREOF” (priority 2023, published 2025)
